# From patent US6534524B1, “Indazole compounds and pharmaceutical compositions for inhibiting protein kinases, and methods for their use” (Agouron Pharmaceuticals, Inc., priority 1999, dated 2003)
# Like-named read-outs stand apart in the source and are kept apart here.
# Assays:
# [1] = Human liver microsome (HLM) assay; format: in vitro ADME; details: human liver microsomes, 5 μM test compound
# Procedure, shortened: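 Compound metabolism in human liver microsomes measured in triplicate. Samples at 0 and 2 h centrifuged at 14000 g for 10 min and analysed by LC-MS.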
# [2] = target: phosphorylated VEGF-R2Δ50 (FLVK-P) (Homo sapiens, UniProt P35968, DEL940-989/E990V); assay: VEGF-R2 coupled spectrophotometric assay, phosphorylated VEGF-R2Δ50 (FLVK-P)
# [3] = target: unphosphorylated VEGF-R2Δ50 (FLVK) (Homo sapiens, UniProt P35968, DEL940-989/E990V); assay: VEGF-R2 coupled spectrophotometric assay, unphosphorylated VEGF-R2Δ50 (FLVK); details: for Ki: FLVK Ki, Table 1; for inhibition at 0.05 µM: read-out: FLVK % inhibition
# LCK tyrosine kinase = target: T1, LCK tyrosine kinase (Homo sapiens, UniProt P06239, C224D/P223M); assay: LCK spectrophotometric assay; format: biochemical; details: Table 1; compound concentration 1 μM; read-out: Lck-P % inhibition
# T1 construct: starting from amino acid residue 223 to the end of the protein at residue 509; made in house; host or cells: insect cells
# Procedure: The production of ADP from ATP that accompanies phosphoryl transfer was coupled to oxidation of NADH using phosphoenolpyruvate (PEP) and a system having pyruvate kinase (PK) and lactic dehydrogenase (LDH). The oxidation of NADH was monitored by following the decrease of absorbance at 340 nm (e340=6.22 cm^−1 mM^−1) using a Beckman DU 650 spectrophotometer. […] Ki values were determined by measuring enzyme activity in the presence of varying concentrations of test compounds. The data were analyzed using Enzyme Kinetic and Kaleidagraph software.
# The spectrophotometric assay was carried out as described above for VEGF-R2, except for the following changes in concentration: LCK=60 nM, MgCl2=0 mM, poly(E4Y1)=20 mM.
# human FGF-R1 = human FGF-R1 (Homo sapiens, UniProt P11362, C488A/C584S/L457V); assay: FGF-R spectrophotometric assay; details: for inhibition at 1 µM: read-out: FGF-P % inhibition, Table 1, compound concentration 1 μM
# [4] = system: human umbilical vein endothelial cells (HUVEC); assay: HUVEC proliferation assay (VEGF-stimulated, MTT); format: cell-based; details: Homo sapiens, HUVEC
# human CHK1 (FL-CHK1) = target: T2, human CHK1 (FL-CHK1) (Homo sapiens, UniProt O14757); assay: CHK1 assay (coupled spectrophotometric, Syntide-2); format: biochemical
# T2 construct: C-terminally His-tagged full-length human CHK1 (FL-CHK1); made in house; host or cells: baculovirus/insect cell system
# T2 sequence (O14757 1-476): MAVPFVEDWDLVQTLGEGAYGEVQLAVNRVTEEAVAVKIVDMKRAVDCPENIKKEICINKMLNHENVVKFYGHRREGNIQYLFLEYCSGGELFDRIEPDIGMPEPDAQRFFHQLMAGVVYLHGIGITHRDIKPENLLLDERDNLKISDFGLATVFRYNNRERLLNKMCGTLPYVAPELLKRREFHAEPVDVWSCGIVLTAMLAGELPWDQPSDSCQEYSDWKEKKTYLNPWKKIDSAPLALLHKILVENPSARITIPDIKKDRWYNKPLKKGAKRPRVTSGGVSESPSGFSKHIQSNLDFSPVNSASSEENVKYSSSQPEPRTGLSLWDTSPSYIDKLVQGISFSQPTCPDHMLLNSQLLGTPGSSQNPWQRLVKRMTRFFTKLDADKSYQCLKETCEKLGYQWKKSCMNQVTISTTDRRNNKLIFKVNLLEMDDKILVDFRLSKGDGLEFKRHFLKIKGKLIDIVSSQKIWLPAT
# Source text: CHK1 Construct for Assay: C-terminally His-tagged full-length human CHK1 (FL-CHK1) was expressed using the baculovirus/insect cell system. […] The protein was purified by conventional chromatographic techniques.
# The production of ADP from ATP that accompanies phosphoryl transfer to the synthetic substrate peptide Syntide-2 ([…]) was coupled to oxidation of NADH using phosphoenolpyruvate (PEP) through the actions of pyruvate kinase (PK) and lactic dehydrogenase (LDH). The oxidation of NADH was monitored by following the decrease of absorbance at 340 nm (ε340=6.22 cm^−1 mM^−1) using a HP8452 spectrophotometer. […] Assays were initiated with 10 nM of FL-CHK1. Ki values were determined by measuring initial enzyme activity in the presence of varying concentrations of test compounds. The data were analyzed using Enzyme Kinetic and Kaleidagraph software.
# [5] = Determination of inhibitor concentration in mouse plasma after intraperitoneal and oral dosing; format: in vivo
# Procedure, shortened: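 Mice dosed intraperitoneally or orally; blood taken by ocular bleed at 0.5, 1 and 4 h and by intracardiac puncture at 7 h. Plasma extracted with ethyl acetate after internal standard and NaOH addition, analysed by HPLC or LC-MS against a mouse-plasma standard curve.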
# CDK2/Cyclin A = CDK2/Cyclin A (Homo sapiens, UniProt P24941); assay: CDK2/Cyclin A assay ([32P]ATP, Rb fragment); format: biochemical
# CDK4/Cyclin D3 complex = CDK4/Cyclin D3 complex (Homo sapiens, UniProt P11802); assay: CDK4/Cyclin D assay ([32P]ATP, Rb fragment)
# [6] = + albumin, read-out: HUVEC + albumin IC50
# [7] = IP, 25 mg/kg, vehicle PEG400:H2O pH 2.3 30:70
# [8] = PO, 50 mg/kg, vehicle PEG400:H2O pH 2.3 30:70
# Sequence of human FGF-R1 (P11362 456-766 L457V/C488A/C584S): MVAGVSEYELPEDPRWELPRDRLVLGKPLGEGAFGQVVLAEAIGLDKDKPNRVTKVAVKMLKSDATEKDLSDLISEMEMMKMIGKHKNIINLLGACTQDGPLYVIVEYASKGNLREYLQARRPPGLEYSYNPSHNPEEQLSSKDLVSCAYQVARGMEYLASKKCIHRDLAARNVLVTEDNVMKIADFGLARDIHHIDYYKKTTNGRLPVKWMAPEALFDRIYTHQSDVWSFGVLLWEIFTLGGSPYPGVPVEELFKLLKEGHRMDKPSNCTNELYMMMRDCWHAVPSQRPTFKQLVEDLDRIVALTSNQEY
# Sequence of CDK4/Cyclin D3 complex (P11802 whole entry, the tested form may be a part): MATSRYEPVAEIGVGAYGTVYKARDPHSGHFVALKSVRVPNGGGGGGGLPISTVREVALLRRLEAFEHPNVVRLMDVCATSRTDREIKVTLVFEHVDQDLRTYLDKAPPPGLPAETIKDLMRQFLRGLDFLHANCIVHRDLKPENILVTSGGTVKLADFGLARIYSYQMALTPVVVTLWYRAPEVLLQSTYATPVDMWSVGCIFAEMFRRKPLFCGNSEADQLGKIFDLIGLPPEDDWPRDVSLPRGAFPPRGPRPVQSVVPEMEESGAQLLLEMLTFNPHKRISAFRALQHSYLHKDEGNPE
# Sequence of CDK4/Cyclin D3 complex (P30281 whole entry partner, the tested form may be a part): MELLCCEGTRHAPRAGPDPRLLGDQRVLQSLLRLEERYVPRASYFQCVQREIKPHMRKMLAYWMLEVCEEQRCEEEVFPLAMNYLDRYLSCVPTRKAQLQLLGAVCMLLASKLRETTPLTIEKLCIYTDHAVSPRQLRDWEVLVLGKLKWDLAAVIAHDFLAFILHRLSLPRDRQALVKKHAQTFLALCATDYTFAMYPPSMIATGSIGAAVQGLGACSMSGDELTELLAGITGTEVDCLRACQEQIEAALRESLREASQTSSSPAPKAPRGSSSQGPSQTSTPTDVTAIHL
# Sequence of phosphorylated VEGF-R2Δ50 (FLVK-P) (P35968 with tags, fused parts or gaps DEL940-989/E990V limits assumed): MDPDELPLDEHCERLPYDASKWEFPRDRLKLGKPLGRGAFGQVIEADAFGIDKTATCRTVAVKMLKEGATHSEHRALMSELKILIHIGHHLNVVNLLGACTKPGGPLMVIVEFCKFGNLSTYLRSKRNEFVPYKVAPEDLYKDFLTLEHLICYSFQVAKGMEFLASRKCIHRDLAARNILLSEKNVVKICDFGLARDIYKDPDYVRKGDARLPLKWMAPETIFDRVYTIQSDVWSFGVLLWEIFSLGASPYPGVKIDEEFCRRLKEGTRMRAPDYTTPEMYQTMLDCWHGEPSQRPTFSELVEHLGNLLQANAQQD
# Sequence of unphosphorylated VEGF-R2Δ50 (FLVK) (P35968 with tags, fused parts or gaps DEL940-989/E990V limits assumed): as above
# T1 sequence (P06239 223-509 P223M/C224D): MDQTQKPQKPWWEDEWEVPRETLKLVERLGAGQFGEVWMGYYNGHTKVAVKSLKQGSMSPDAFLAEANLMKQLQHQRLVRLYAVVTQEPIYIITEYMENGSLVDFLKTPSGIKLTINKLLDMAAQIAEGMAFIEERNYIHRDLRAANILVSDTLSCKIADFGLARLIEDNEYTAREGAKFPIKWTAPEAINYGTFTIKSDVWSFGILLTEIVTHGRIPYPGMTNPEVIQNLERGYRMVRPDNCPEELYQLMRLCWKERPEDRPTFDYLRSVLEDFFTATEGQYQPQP
smiles,measurement,setting,value
"C=C(c1cccc(NC(C)=O)c1)c1ccc2c(/C=C/c3ccccc3)n[nH]c2c1 [Example 23, 6-(1-(3-Acetamido-phenyl)-vinyl)-3-styryl-1H-indazole]","% remain (HLM, 2 h)",[1],74%
same,Ki,[2],2.1 nM
same,Ki,[3],1.6 nM
"CCn1nc(C)cc1C(=O)Nc1cc(C(=O)c2ccc3c(/C=C/c4ccccn4)n[nH]c3c2)c(C)cc1C [Example 41(ll), 6-[2,4-Dimethyl-5-((1-Ethyl-3-methyl-1H-pyrazol-5-yl)carboxamido)benzoyl]-3-E-[2-(pyridin-2-yl)ethenyl]-1H-indazole]",inhibition at 1 µM,LCK tyrosine kinase,14%
same,inhibition at 1 µM,human FGF-R1,91%
same,IC50,[4]; [6],23 nM
same,inhibition at 0.05 µM,[3],95%
"C(=C\c1n[nH]c2cc(Oc3ccccc3)ccc12)/c1ccccc1 [Example 8(a), 3-(E-Styryl)-6-phenoxy-1H-indazole]",Ki,human FGF-R1,42 nM
same,Ki,[2],23 nM
same,Ki,"human CHK1 (FL-CHK1); Table 1, read-out: CHK-1 Ki",530 nM
same,Ki,[3],3.2 nM
"C#CCNC(=O)c1ccccc1Nc1ccc2c(/C=C/c3ccccn3)n[nH]c2c1 [Example 39(b), 6-[2-(Prop-2-ynylcarbamoyl)phenylamino]-3-E-[2-(pyridin-2-yl)ethenyl]-1H-indazole]",inhibition at 1 µM,LCK tyrosine kinase,10%
same,inhibition at 1 µM,human FGF-R1,50%
same,IC50,[4]; [6],> 10 nM
same,plasma half-life (T1/2),"[5]; PO, 25 mg/kg, vehicle PEG400:H2O pH 2.3 30:70",11.8 h
same,AUC(0-t),"[5]; female, PO, 25 mg/kg, vehicle PEG400:H2O pH 2.3 30:70",> 31000 ng·h/mL
same,Cmax,"[5]; female, PO, 25 mg/kg, vehicle PEG400:H2O pH 2.3 30:70, read-out: Cmax",> 5000 ng/mL
same,concentration at 7 h,"[5]; female, PO, 25 mg/kg, vehicle PEG400:H2O pH 2.3 30:70, read-out: Cmin (7 hr conc.)",3150 ng/mL
"O=C(Nc1cc(Nc2ccc3c(/C=C/c4ccccc4)n[nH]c3c2)ccc1F)c1ccccc1 [Example 47, 6-[N-(3-Benzamido-4-fluorophenyl)amino]-3-E-styryl-1H-indazole]",inhibition at 1 µM,LCK tyrosine kinase,50%
same,inhibition at 1 µM,human FGF-R1,88%
same,AUClast,[5]; [7],236 ng·h/mL
same,Cmax,[5]; [7],39 ng/mL
same,plasma half-life (T1/2),[5]; [7],19.9 h
same,AUClast,[5]; [8],327 ng·h/mL
same,Cmax,[5]; [8],84 ng/mL
same,plasma half-life (T1/2),[5]; [8],3.4 h
same,Ki,[3],0.25 nM
CCn1nc(C)cc1C(=O)Nc1cc(Oc2ccc3c(/C=C/c4ncc[nH]4)n[nH]c3c2)ccc1C [Example 58],inhibition at 1 µM,LCK tyrosine kinase,19%
same,inhibition at 1 µM,human FGF-R1,98%
same,inhibition at 0.05 µM,[3],98%
C(=C\c1n[nH]c2cc(Sc3ccccc3)ccc12)/c1ccccc1 [Example 8(c)],Ki,[2],16 nM
same,Ki,"human CHK1 (FL-CHK1); Table 1, read-out: CHK-1 Ki",> 10000 nM
same,Ki,[3],2.6 nM
"CC(=O)Nc1cccc(Oc2ccc3c(/C=C/c4ccccc4)n[nH]c3c2)c1 [Example 4(b), N-[3-(3-Styryl-1H-indazol-6-yloxy)-phenyl]-acetamide]",Ki,human FGF-R1,49 nM
same,Ki,[2],1.9 nM
same,Ki,[3],2.7 nM
"CN(c1cccc(NC(=O)c2ccccc2)c1)c1ccc2c(/C=C/c3ccccc3)n[nH]c2c1 [Example 12(b), N-{3-[Methyl-(3-styryl-1H-indazol-6-yl)-aimino]-phenyl}-benzamide]",Ki,human FGF-R1,31 nM
same,Ki,[2],1.8 nM
same,Ki,[3],0.48 nM
"Oc1ccc(-c2ccc3c(-c4nc5ccccc5[nH]4)n[nH]c3c2)c(Oc2ccccc2)c1 [Example 24(g), 3-1H-Benzoimidazol-2-yl-6-(2-phenoxy-4-hydroxyphenyl)-1H-indazole]",Ki,[2],194 nM
same,Ki,CDK2/Cyclin A; Table 2,130 nM
same,Ki,CDK4/Cyclin D3 complex,29 nM
"COc1cc(O)ccc1-c1ccc2c(-c3nc4ccccc4[nH]3)n[nH]c2c1 [Example 24(d), 3-1H-Benzoimidazol-2-yl-6-(4-hydroxy-2-methoxyphenyl)-1H-indazole]",Ki,[2],125 nM
same,Ki,CDK2/Cyclin A; Table 2,83 nM
same,Ki,human CHK1 (FL-CHK1); Table 2,56 nM
same,Ki,CDK4/Cyclin D3 complex,17 nM
"Cc1cc(O)c(Cl)cc1-c1ccc2c(-c3nc4ccccc4[nH]3)n[nH]c2c1 [Example 24(c), 4-[3-(1-H-Benzoimidazol-2-yl)-1-H-indazol-6-yl]-2-chloro-5-methyl-phenol]",Ki,[2],14.2 nM
same,Ki,CDK2/Cyclin A; Table 2,3.4 nM
same,Ki,human CHK1 (FL-CHK1); Table 2,44 nM
same,Ki,CDK4/Cyclin D3 complex,1.5 nM
"Cc1cc(C(=O)Nc2cccc(Oc3ccc4c(/C=C/c5ccccn5)n[nH]c4c3)c2)n(C)n1 [Example 57, 6-[3-((1,3-Dimethyl-1H-pyrazol-5-yl)carboxamido)phenoxy]-3-E-[2-(pyridin-2-yl)ethenyl]-1H-indazole]",inhibition at 1 µM,LCK tyrosine kinase,30%
same,inhibition at 1 µM,human FGF-R1,89%
same,inhibition at 0.05 µM,[3],100%
"COc1cc(-c2ccc3c(-c4nc5ccccc5[nH]4)n[nH]c3c2)c(C)cc1O [Example 24(a), 4-[3-(1-H-Benzoimidazol-2-yl)-1-H-indazol-6-yl]-2-methoxy-5-methyl-phenol]",Ki,[2],98.3 nM
same,Ki,CDK2/Cyclin A; Table 2,17 nM
same,Ki,human CHK1 (FL-CHK1); Table 2,28 nM
same,Ki,CDK4/Cyclin D3 complex,5.1 nM
"C=CCOc1cc(-c2ccc3c(/C=C/c4ccc(OC)c(OC)c4)n[nH]c3c2)ccc1O [Example 1(c), 3-[E-2-(3,4-Dimethoxy-phenyl)vinyl]-6-(3-allyloxy-4-hydroxy-phenyl)-1H-indazole]",IC50,[4]; read-out: HUVEC IC50,> 1000 nM
same,Ki,[2],4.7 nM
same,Ki,CDK2/Cyclin A; Table 1,560 nM
same,Ki,"human CHK1 (FL-CHK1); Table 1, read-out: CHK-1 Ki",78 nM
same,Ki,[3],1.4 nM
same,Ki,CDK4/Cyclin D3 complex,670 nM
"CC(=O)Nc1cccc(N(C)c2ccc3c(/C=C/c4ccccc4)n[nH]c3c2)c1 [Example 12(a), N-{3-[Methyl-(3-styryl-1H-indazol-6-yl)-amino]-phenyl}-acetamide]",Ki,human FGF-R1,19 nM
same,"% remain (HLM, 2 h)",[1],59%
same,Ki,[2],6.9 nM
same,Ki,[3],1.8 nM
"COc1cc(-c2ccc3c(-c4ccccc4)n[nH]c3c2)ccc1O [Example 2(b), 3-Phenyl-6-(3-methoxy-4-hydroxy-phenyl)-1H-indazole]",Ki,[2],425 nM
same,Ki,CDK2/Cyclin A; Table 1,2200 nM
same,Ki,[3],300 nM
same,Ki,CDK4/Cyclin D3 complex,8000 nM
"COc1cc(-c2ccc3c(/C=C/c4ccc(NC(=O)CN)cc4)n[nH]c3c2)ccc1O [Example 26, 6(4-Hydroxy-3-methoxyphenyl)-3-[E-2-(4-glycylamino-phenyl)-ethenyl]-1H-indazole]",Ki,[2],1.1 nM
same,Ki,CDK2/Cyclin A; Table 1,3.2 nM
same,Ki,"human CHK1 (FL-CHK1); Table 1, read-out: CHK-1 Ki",6.6 nM
